Read-outs that look alike come from different tables or passages of the source.
Columns and labels:
[1] = test system: SARS Coronavirus 2 recombinant with NanoLuc (SARS-CoV2-NLuc); test: organism not typed; format: cell-based; settings: 48 h
in vitro = format: cell-based; settings: human
Protocol: Cytotoxicity of the compounds was determined in uninfected cells using the cell viability reagent in a similar fashion as described before for other cell types (Cihlar et al., Antimicrob Agents Chemother. 2008, 52(2):655-65). HEp-2 (1.5×10^3 cells/well) and MT-4 (2×10^3 cells/well) cells were plated in 384-well plates and incubated with the appropriate medium containing 3-fold serially diluted compound ranging from 15 nM to 100,000 nM. Cells were cultured for 4-5 days at 37° C. Following the incubation, the cells were allowed to equilibrate to 25° C., and cell viability was determined by adding Cell-Titer Glo viability reagent. The mixture was incubated for 10 min, and the luminescence signal was quantified using an Envision plate reader. Untreated cell and cells treated at 2 μM puromycin (Sigma, St. Louis, MO) serve as 100% and 0% cell viability control, respectively.

[2] = set-up: species or system Sprague-Dawley rats; settings: male, Sprague-Dawley, rat, in vivo, po; for Reference Compound A F %: 1 mg/kg; for Cmax / Reference Compound A AUCinf.: 8.1 mg/kg
Protocol: Ester Reference Compound, Compound 3 and Compound 6 were dosed orally by gavage to male Sprague-Dawley rats (n=3/group); Ester Reference Compound at 6 mg/kg in 2.5% Dimethyl sulfoxide; 10% Kolliphor HS-15; 10% Labrasol; 2.5% Propylene glycol and 75% water, pH 2.5; Compound 3 at 6.65 mg/kg in 10% Dimethyl sulfoxide; 40% Kolliphor HS-15; 40% Labrasol and 10% Propylene glycol and Compound 6 at 8.1 mg/kg in 2.5% Dimethyl sulfoxide; 10% Kolliphor HS-15; 10% Labrasol; 2.5% Propylene glycol and 75% water, pH 2.8. Blood samples were collected into pre-chilled collection tubes containing K2EDTA and processed to plasma at 10 time points over a span of pre-dose to 24 h post-administration. Plasma samples were subject to protein precipitation with a 12.5-fold volume of methanol, vortexed and centrifuged. Supernatants were transferred and evaporated to dryness under nitrogen and reconstituted with 5% acetonitrile in water. Separation was achieved on a Phenomenex Synergi Polar-RP column, a mobile phase A of 10 mM ammonium formate with 0.1% formic acid in water and a mobile phase B of 0.1% formic acid in acetonitrile with a step-wise linear gradient from 5 to 95% mobile phase B. An LC-MS/MS method was used to measure the concentrations of the Reference Compound A and either Ester Reference Compound, Compound 3 or Compound 6 in plasma.

[3] = test system: Respiratory syncytial virus recombinant with luciferase (RSV-Luc5); test: microbe, parasite or virus in culture; format: cell-based; settings: human respiratory syncytial virus, NHBE, 72 h, read-out: RSV NHBE EC50
[4] = test system: Respiratory syncytial virus recombinant with luciferase (RSV-Luc5); test: microbe, parasite or virus in culture; format: cell-based; settings: human respiratory syncytial virus, HEp-2, 72 h, read-out: RSV Hep2 EC50

SMILES	EC50 [1] [nM]	CC50 (in vitro) [nM]	Reference Compound A F % [2] [%]	Cmax [2] [nM]	Reference Compound A AUCinf. [2] [µM·h]	EC50 [3] [nM]	EC50 [4] [nM]
CC(C)C(=O)OC[C@H]1O[C@@](C#N)(c2ccc3c(=N)n(COP(=O)(O)O)cnn23)[C@H](O)[C@@H]1O [Compound 6, ((2R,3S,4R,5R)-5-cyano-3,4-dihydroxy-5-(4-imino-3-((phosphonooxy)methyl)-3,4-dihydropyrrolo[2,1-f][1,2,4]triazin-7-yl)tetrahydrofuran-2-yl)methyl isobutyrate]	3650	50000	54.4	3080	6.86	3550	719
COC1O[C@H]2[C@@H](O1)[C@](C#N)(c1ccc3c(N)ncnn13)O[C@@H]2COC(=O)C(C)C (stereo partly drawn) [Compound 4, ((3aR,4R,6R,6aR)-6-(4-aminopyrrolo[2,1-f][1,2,4]triazin-7-yl)-6-cyano-2-methoxytetrahydrofuro[3,4-d][1,3]dioxol-4-yl)methyl isobutyrate]	> 50000	> 5000	–	–	–	–	–
CCCCCCCC(=O)Nc1ncnn2c([C@]3(C#N)O[C@H](COC(=O)C(C)C)[C@@H](O)[C@H]3O)ccc12 [Compound 11, ((2R,3S,4R,5R)-5-cyano-3,4-dihydroxy-5-(4-octanamidopyrrolo[2,1-f][1,2,4]triazin-7-yl)tetrahydrofuran-2-yl)methyl isobutyrate]	935	42400	–	–	–	188	–
CCCC(=O)Nc1ncnn2c([C@]3(C#N)O[C@H](COC(=O)C(C)C)[C@@H](O)[C@H]3O)ccc12 [Compound 9, ((2R,3S,4R,5R)-5-(4-butyramidopyrrolo[2,1-f][1,2,4]triazin-7-yl)-5-cyano-3,4-dihydroxytetrahydrofuran-2-yl)methyl isobutyrate]	1950	> 50000	–	–	–	–	529
CC(=O)Nc1ncnn2c([C@]3(C#N)O[C@H](COC(C)=O)[C@@H](OC(C)=O)[C@H]3OC(C)=O)ccc12 [Compound 7, (2R,3R,4R,5R)-2-(4-acetamidopyrrolo[2,1-f][1,2,4]triazin-7-yl)-5-(acetoxymethyl)-2-cyanotetrahydrofuran-3,4-diyl diacetate]	5540	–	–	–	–	932	–
CCCCCC(=O)Nc1ncnn2c([C@]3(C#N)O[C@H](COC(=O)C(C)C)[C@@H](O)[C@H]3O)ccc12 [Compound 10, ((2R,3S,4R,5R)-5-cyano-5-(4-hexanamidopyrrolo[2,1-f][1,2,4]triazin-7-yl)-3,4-dihydroxytetrahydrofuran-2-yl)methyl isobutyrate]	1220	> 50000	–	–	–	–	–
CC(C)C(=O)OC[C@H]1O[C@@](C#N)(c2ccc3c(N)ncnn23)[C@@H]2OC(=O)O[C@@H]21 [Compound 3, ((3aR,4R,6R,6aR)-6-(4-aminopyrrolo[2,1-f][1,2,4]triazin-7-yl)-6-cyano-2-oxotetrahydrofuro[3,4-d][1,3]dioxol-4-yl)methyl isobutyrate]	1750	50000	84.7	2280	10.7	512	330
CCCC(=O)Nc1ncnn2c([C@]3(C#N)O[C@H](COC(C)=O)[C@@H](OC(C)=O)[C@H]3OC(C)=O)ccc12 [Compound 8, (2R,3R,4R,5R)-5-(acetoxymethyl)-2-(4-butyramidopyrrolo[2,1-f][1,2,4]triazin-7-yl)-2-cyanotetrahydrofuran-3,4-diyl diacetate]	3140	–	–	–	–	405	–
CC(C)C(=O)OC[C@H]1O[C@@](C#N)(c2ccc3c(=N)n(COP(=O)(O)OCc4ccccc4)cnn23)[C@H](O)[C@@H]1O [Compound 5, ((2R,3S,4R,5R)-5-(3-((((benzyloxy)(hydroxy)phosphoryl)oxy)methyl)-4-imino-3,4-dihydropyrrolo[2,1-f][1,2,4]triazin-7-yl)-5-cyano-3,4-dihydroxytetrahydrofuran-2-yl)methyl isobutyrate]	> 50000	> 50000	–	–	–	–	–
CC(C)C(=O)OC[C@H]1O[C@@](C#N)(c2ccc3c(N)ncnn23)[C@H](O)[C@@H]1O [Ester Reference Compound, reference compound]	–	–	–	2100	7.57	–	–

Source: patent US20230322813A1, “COMPOUNDS AND METHODS FOR TREATMENT OF VIRAL INFECTIONS” (Gilead Sciences, Inc., priority 2022, published 2023)
